SMILES strings stand for the structures. Values joined by “and” are separate entries in the source; they are usually repeats but may differ in a detail not shown here. Equal entries are not always repeated. Where two headings read alike, the source gives them in different places.

Series [1] has as its system A549. The series is described as follows: Cell proliferation assay (CellTiter-Glo), A549. The class given is cell-based. As to conditions: Homo sapiens, 48 h, supplementary CSV. As to the method:
(§1) To further characterize the potency of the phenylproline derivatives on cancer cells, their effect on proliferation has been measured on HeLa and A549 cell lines, which are known to express S100A4.[44],[45] A cell proliferation assay was performed by cultivating cells for 48 h in complete media with various concentrations of inhibitors, up to 30 μM. At the end of the treatment, luminescence was measured after the addition of the CellTiter-Glo reagent (Figure 7A).
(§2) The day before, cells were seeded in a white, cell-culture treated 384-well plates in complete high-glucose DMEM to reach a confluency of 25% on the day of the experiment. The next day, the medium was replaced by complete, high-glucose, phenol-red-free medium, and cells were incubated for 48 h in the presence of an inhibitor or DMSO as a control. Aliquots of the supernatant were harvested, diluted 100 times in 200 mM Tris-HCl, pH 7.3, 10% glycerol, and 1% BSA buffer, and used for cyctotoxicity measurement by using the LDH-Glo cytotoxicity assay kit (Promega). In parallel, the CellTiter-Glo (Promega) reagent was added to the cells to measure cell proliferation. Both experiments were done according to the manufacturer’s recommendations, and the luminescence was quantified using the FSX plate reader (Pherastar).

Series [2] has as its target T1, S100A4 (Homo sapiens, UniProt P26447). The series is described as follows: Protein labeling detection by mass spectrometry, S100A4. The following applies: 10 μM S100A4, 100 μM inhibitor, 1 h.
Description: To confirm its mechanism of inhibition, we performed a protein labeling assay. S100A4 protein was incubated in the presence of BAY11–7082 and analyzed by mass spectrometry (Figure 1C).
The compounds and their activity on S100A4-NMII and S100A11-AnII are shown in Figure 2A,B. To investigate their covalent activity, we then performed a protein labeling assay by incubating S100A4 in the presence of the inhibitors in parallel.
The mixture was incubated for 1 h at room temperature in the dark and analyzed by mass spectrometry using a 1290 Infinity coupled to a 6530 Accurate-Mass Q-TOF LC/MS (Agilent Technologies). Results were analyzed using the Qualitative Analysis MassHunter Acquisition Data and the Bioconfirm software.
Series [3] can be described thus: Cytotoxicity assay (LDH-Glo), A549. The following applies: human, A549 cells, supplementary CSV, read-out: A549 Cell toxicity IC50. The class given is cell-based. As to the method: as §1, §2
The nature of series [4]: Metabolic stability in mouse liver microsomes (MLM). The format is in vitro ADME. As to conditions: for MLM, Cli / half-life: mouse liver microsomes; for half-life: read-out: MLM, T1/2. The source says: (§3) Selected compounds were screened for aqueous solubility in PBS (pH 7.4), metabolic stability in mouse liver microsomes (MLM) as a measure of clearance, Log D, and permeability. ADME studies reported in this work were independently performed by WuXi AppTec (Shanghai, China). Raw data are provided upon request.

Series [5] is described as follows: GSH reactivity assay (LCMS). The class given is physicochemical. The following applies: 1 mM glutathione (GSH) in HEPES buffer, pH 7.5; read-out: GSH t1/2 (converted). As to the method: GSH is the most abundant low molecular weight thiol compound in the cell. It protects cells from oxidative damage and the toxicity of xenobiotic electrophiles and maintains redox homeostasis.[43] We speculated that a robust and specific reaction of inhibitors would not be drastically affected by competitive cysteines in the reaction.
50 μM of each compound was incubated at room temperature with 1 mM GSH in 50 mM HEPES, 20 mM NaCl, pH 7.5, and 1.3% DMSO. At each time point, an aliquot was taken and analyzed by LCMS. The percentage of the compound remaining was determined by comparing the area of the peaks of the compound and the GSH adduct. The natural logarithm of the results was fitted to a linear regression, and t1/2 was calculated as t1/2 = ln(2)/–slope.

In series [6] the target is T2, S100A11-AnII (Homo sapiens, UniProt P31949).
T2 construct: made in house; host or cells: E. coli Rosetta (DE3); peptide from LifeTein
T2 sequence (P31949 1-105): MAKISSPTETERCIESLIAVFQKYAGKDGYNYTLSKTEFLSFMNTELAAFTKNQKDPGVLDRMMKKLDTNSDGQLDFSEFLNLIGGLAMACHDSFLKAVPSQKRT
The series is described as follows: HTRF (TR-FRET) peptide displacement S100A11-AnII. The following applies: supplementary CSV. The class given is binding. The method, then:
Table S4: Compound IDs and SMILES … S30 […]
(§4) Peptide displacement assay development
(§5) addition of an inhibitor.
(§6) Assay was done in 384-well
(§7) After 2 hours of incubation at
(§8) concentration range to avoid the saturation of the signal.

Series [7] relates to HeLa cells. The series is described as follows: Cell migration (wound healing) assay, HeLa. The format is cell-based. As to conditions: 8 μM, 36 h. The method, then:
We next investigated whether phenylproline derivatives would inhibit S100A4 activity by affecting cell migration. HeLa and A549 cells were challenged for a cell migration assay in the presence of phenylproline derivatives. A monolayer of cells was scratched and treated with various concentrations of inhibitors for 36 h. Cell migration was monitored automatically using the Incucyte live-cell imager by imaging cells every 2 h.
The day before the experiment, cells were seeded in a black, clear-bottom, collagen-coated 96-well plate in complete high-glucose DMEM to reach nearly full confluency the next day. On the day of the experiment, a wound in the cell layer was made, and the media were replaced with media containing phenylproline derivatives. Cells were incubated for 36 h in an Incucyte cell-imager (Sartorius, Germany), allowing for automated cell imaging every 2 h. The analysis was done by measuring the wound area using ImageJ and plugging the wound healing tool.

Series [8] can be described thus: Log D. The format is physicochemical.
From the text: as §3

Series [9] has as its target T3, S100A4-NMII (Homo sapiens, UniProt P26447). The series is described as follows: HTRF (TR-FRET) peptide displacement S100A4-NMII (MPN peptide). The format is binding. Details: made in house; host or cells: E. coli Rosetta (DE3); peptide from LifeTein. As to conditions: supplementary CSV. As to the method: as §4, §5, §6, §7, §8
Series [10] relates to P-glycoprotein (P-gp, MDR1). In words: Cell permeability MDR1-MDCK II. The class given is in vitro ADME. The following applies: dog.
From the text: as §3

The nature of series [11]: Aqueous solubility in PBS (pH 7.4). The format is physicochemical. As to conditions: aqueous buffer; PBS pH 7.4; read-out: aq. solubility.
From the text: as §3

The target of series [12] is T3, S100A4-NMII. In words: cell-based.
From the text: First, we performed IC50 measurements of protein–protein interaction in the presence of inhibitors using NanoBret technology. Briefly, S100A4-HaloTag and NMII-NanoLuc were expressed in 293HEK cells to allow signal detection from donor (NanoLuc) and acceptor (HaLoTag) proximity upon S100A4-NMII interaction.
Assay development was done according to the NanoBRet-NanoGlo detection system manufacturer’s recommendations (Promega) by testing each combination of N- and C-termini of HaloTag and NanoLuc fusion constructs. 293HEK cells were seeded on 6-well plates in complete DMEM media and transfected 6 h later with S100A4-NanoLuc (1.8 μg) and NMII-HaloTag (0.2 μg) constructs using the JetPrime transfection reagent (Polyplus Transfection, Strasbourg, France). After an overnight incubation, cells were resuspended in phenol-red-free, 4% serum media in the presence of the HaloTag NanoBret 618 ligand or DMSO for control. […] NanoBret NanoGlo substrates were added to cells prior to reading the plate with the Pherastar FSX plate reader. The raw Nanobret ratio was calculated by dividing the acceptor emission value (618 nm) by the donor emission value (460 nm) for each sample. The mean NanoBret data were calculated by subtracting the background ratio (no acceptor control) from the sample ratio.
Series [13] in a line: Cytotoxicity assay (LDH-Glo), HeLa. The following applies: human, HeLa cells, supplementary CSV, read-out: HeLa Cell toxicity IC50. The format is cell-based. The method, then:
as §1, §2

For series [14], the system named is HeLa. In words: Cell proliferation assay (CellTiter-Glo), HeLa. The class given is cell-based. The following applies: Homo sapiens, 48 h, supplementary CSV. The method, then: as §1, §2
Series [15] has as its system P-gp (MDR1). In words: Cell permeability MDR1-MDCK II. The format is in vitro ADME. The following applies: dog.
From the text: as §3

In series [16] the target is T1, S100A4. In words: biochemical. As to the method:
As a starting point to discover new S100 inhibitors, we used a peptide-displacement assay based on the Amplified Luminescent Proximity Homogeneous Assay (AlphaScreen) of a His-tagged protein interacting with a biotinylated peptide and its ability to be disrupted by small molecule inhibitors of protein interactions.[31] We took advantage of the ability of several S100 proteins to interact with the TRTK-12 peptide.[32] The optimal experimental conditions were determined by performing a protein versus peptide titration for each protein. Serial dilutions of purified 6His-S100 protein (S100A2, S100A4, S100A5, or S100B) were mixed with a serial dilution of a biotinylated TRTK-12 peptide in the presence of 1 mM calcium to allow conformational changes and activation of S100 proteins. […]
A 4 989 compound library was screened using an Alpha-Screen assay. […] Twelve wells per plate were used as solvent controls and as a reference for inhibition calculation, which was calculated as inhibition (%) = (1 – (Fsample– Fbackground)/(Fsolvent – Fbackground)) × 100
(§9) The best hits from the single-shot experiment were tested for IC50 determination using the HTRF assay as described above. […] The percentage of inhibition was calculated as described above and was used for IC50 determination. […]

The target of series [17] is S100A2 (Homo sapiens, UniProt P29034). As to conditions: read-out: IC50 S100A2 - TRTK peptide displacement; AlphaScreen, duplicate, 50 μM top FAC. As to the method: (§10) As a starting point to discover new S100 inhibitors, we used a peptide-displacement assay based on the Amplified Luminescent Proximity Homogeneous Assay (AlphaScreen) of a His-tagged protein interacting with a biotinylated peptide and its ability to be disrupted by small molecule inhibitors of protein interactions.[31] We took advantage of the ability of several S100 proteins to interact with the TRTK-12 peptide.[32] The optimal experimental conditions were determined by performing a protein versus peptide titration for each protein. Serial dilutions of purified 6His-S100 protein (S100A2, S100A4, S100A5, or S100B) were mixed with a serial dilution of a biotinylated TRTK-12 peptide in the presence of 1 mM calcium to allow conformational changes and activation of S100 proteins. The protein–peptide ratio that allows the highest signal to background, without signal saturation, was chosen as the assay condition for each protein to perform the first screening campaign (Figure S1 and Table S1). An internal diversity library of 4 989 small molecules was screened at a single-dose of 50 μM in duplicate in a 384-well plate format. The four S100 protein screening experiments were performed in parallel. […] We also selected the hits based on their ability to show specificity for one protein; compounds showing 50% or more inhibition for other S100 proteins were not selected (Supporting Information).
S100A2, sequence (P29034 whole entry): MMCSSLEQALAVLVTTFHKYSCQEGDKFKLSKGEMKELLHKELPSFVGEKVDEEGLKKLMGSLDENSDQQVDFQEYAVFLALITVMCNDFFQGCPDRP
(§11) A 4 989 compound library was screened using an Alpha-Screen assay. 6His-Tag-S100A2, -S100A4, -S100A5, and -S100B were used in combination with TRTK-Biotin peptide under conditions described previously. […] Twelve wells per plate were used as solvent controls and as a reference for inhibition calculation, which was calculated as inhibition (%) = (1 – (Fsample– Fbackground)/(Fsolvent – Fbackground)) × 100
as §9

Series [18] addresses S100B (Homo sapiens, UniProt P04271). As to conditions: read-out: IC50 S100B - TRTK peptide displacement; AlphaScreen, duplicate, 50 μM top FAC. As to the method: as §10, §11, §9
Series [19] addresses S100A5 (Homo sapiens, UniProt P33763). As to conditions: read-out: IC50 S100A5 - TRTK peptide displacement; AlphaScreen, duplicate, 50 μM top FAC. The method, then:
as §10, §11, §9

The mark [20] stands for this setting: read-out: S100A4 IC50 HTRF assay.
Where [21] appears, read: MDCK-MDR1, A to B, read-out: MDR1-MDCK II, AB Papp.
The mark [22] stands for this setting: MDCK-MDR1, B to A, read-out: MDR1-MDCK II, BA Papp.

T1 sequence (P26447 whole entry): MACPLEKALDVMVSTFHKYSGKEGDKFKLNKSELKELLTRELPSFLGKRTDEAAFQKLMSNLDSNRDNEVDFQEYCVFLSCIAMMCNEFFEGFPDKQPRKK
T3 sequence (P26447 whole entry): as above
S100B, sequence (P04271 whole entry): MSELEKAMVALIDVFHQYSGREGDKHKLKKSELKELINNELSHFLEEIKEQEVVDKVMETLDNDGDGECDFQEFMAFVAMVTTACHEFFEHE
S100A5, sequence (P33763 whole entry): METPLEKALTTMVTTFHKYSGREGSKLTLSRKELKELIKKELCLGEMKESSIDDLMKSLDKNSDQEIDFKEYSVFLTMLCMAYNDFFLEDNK

Regarding `O=C(Nc1cccc(Cl)c1)[C@H]1C[C@H](c2ccccc2)CN1C(=O)CCl` [5a], the IC50 is 25 µM in [1]; > 30 µM in series [6]; 4220 nM in series [9] (setting [20]); 20 µM in [12]; 3.1 µM in series [14]. In addition, the “S100A4 covalent modification pattern (in words)” value in [2] was “single shifts”. Besides, the IC50 at 48 h was 27.1 µM in [3] and 55.8 µM in series [13]. The “MLM, Cli” value in [4] was 332 μL/min/mg protein. Moreover, in series [4], the half-life came out at 4 min. Besides, the half-life at 50 μM in series [5] is 564 min. The “wound healing (cell migration)” value in series [7] was “drastically reduced wound healing”. Further, in [8], the logD came out at 3.95. Besides, the values for the Papp in [10] (setting [21]) and in [10] (setting [22]) were 0.8 ×10⁻⁶ cm/s and < 26.4 ×10⁻⁶ cm/s, respectively. Further, the solubility in series [11] is 23.9 µg/mL and 63.4 µM.
Consider `CC(C)C[C@@H](NC(=O)[C@H]1C[C@H](c2ccccc2)CN1C(=O)CCl)c1nc2ccccc2[nH]1` [5c], for which the IC50 in [1] was 11.9 µM; in series [6], 36.8 µM; in series [9] (S100A4 + 1mM GSH IC50 HTRF assay, 1 mM GSH), 1570 nM; in series [9] (setting [20]), 770 nM; in series [12], 11.1 µM; in series [14] it was 4.5 µM. Besides, the “S100A4 covalent modification pattern (in words)” value in series [2] is recorded as “single shifts”. The values for the IC50 at 48 h in series [3] and in series [13] were 37.7 µM and 29.8 µM, respectively. In addition, the “microsomal stability MLM (in words)” value in series [4] is recorded as “moderate MLM stability”. For the same molecule, the “MLM, Cli” value in [4] is listed as 209 μL/min/mg protein. For the same molecule, the half-life in series [4] amounted to 7 min. For the same molecule, in series [5], the half-life at 50 μM is 408 min. The molecule further had a logD in series [8] of 4.64. Moreover, the Papp in [15] (setting [21]) turned out to be 12.6 ×10⁻⁶ cm/s; in series [15] (setting [22]), 38.8 ×10⁻⁶ cm/s. The solubility in [11] was 1.69 µg/mL and 3.73 µM.
Take `CN1CCCC(NC(=O)[C@H]2C[C@H](c3ccccc3)CN2C(=O)CCl)C1=O` (stereo partly drawn) [5d]: the IC50 in series [6] is > 30 µM; in series [9] (setting [20]) it was 1050 nM.
For `O=C1Nc2ccccc2C1NC(=O)[C@H]1C[C@H](c2ccccc2)CN1C(=O)CCl` (stereo partly drawn) [5e] the same measures were > 30 µM and 3250 nM.
`COc1cccc(N2CC(NC(=O)[C@H]3C[C@H](c4ccccc4)CN3C(=O)CCl)CC2=O)c1` (stereo partly drawn) [5f]: the results for the IC50 in series [6] and in series [9] (setting [20]) were > 30 µM and 4750 nM, respectively.
For `N#CCc1ccc(NC(=O)[C@H]2C[C@H](c3ccccc3)CN2C(=O)CCl)cc1` [5g] the same measures were > 30 µM and 1240 nM.
With `Cc1ccc(S(=O)(=O)/C=C/C#N)cc1` [compound 1], the 50% inhibitory concentration (IC50) in series [16] is < 1000 nM; in series [16] (read-out: IC50 S100A4 - TRTK peptide displacement, AlphaScreen, duplicate, 50 μM top FAC, 1 mM calcium) it was 1230 nM; in series [17] it was > 30 µM; in series [18], > 30 µM; in [19] it was > 30 µM.
Take `O=C(Nc1cccc(Cl)c1)[C@H]1C[C@H](c2ccccc2)CN1C(=O)CCl` [compound 5]: the IC50 in series [6] was 33.8 µM; in [9] (setting [20]), 7400 nM.

The record behind these values is publication PMC11571109, “Covalent Inhibitors of S100A4 Block the Formation of a Pro-Metastasis Non-Muscle Myosin 2A Complex” (Journal of Medicinal Chemistry, 2024).
